{
  "source": "patent US20050263150A1",
  "about": "“Systems and methods for the administration of drugs and medications” (priority 2004, published 2005)",
  "origin": "cited, not measured here",
  "key": {"[1]": {"conditions": "for duration of action: in vivo"}, "[2]": {"conditions": "ketamine combined with benzodiazepines and barbiturates, extends ketamine's half-life"}},
  "note": "Where two headings read alike, the source gives them in different places.",
  "data": [
    {"smiles": "CC(C)c1cccc(C(C)C)c1O", "note": "[Propofol]", "values": [
      {"measurement": "solubility in water", "value": "almost completely insoluble in water"}
    ]},
    {"smiles": "C=CCC1(C(C)C#CCC)C(=O)N=C(O)N(C)C1=O", "note": "(stereo not drawn) [Methohexital]", "values": [
      {"measurement": "duration of action", "setting": "[1]", "value": "less than 10 minutes"},
      {"measurement": "onset of action", "setting": "[1]; procedural sedation", "value": "less than 1 minute"}
    ]},
    {"smiles": "CNC1(c2ccccc2Cl)CCCCC1=O", "note": "(stereo not drawn) [Ketamine, 2-(2-chlorophenyl)-2-(methylamino)-cyclohexanone]", "values": [
      {"measurement": "prolonging clinical recovery time", "setting": "[2]", "value": "about 30%"}
    ]},
    {"smiles": "[N-]=[N+]=O", "note": "[Nitrous oxide]", "values": [
      {"measurement": "duration of action", "setting": "[1]", "value": "3 to 5", "unit": "min"},
      {"measurement": "onset of action", "setting": "[1]; sedative/analgesic", "value": "3 to 5", "unit": "min"}
    ]}
  ]
}
